Measurements taken from US7148253B2, “4-thio coumarins” (priority 2002, dated 2006).
“And” between values parts separate entries of the source, which are not always exact repeats. Equal entries are not always repeated. Where two headings read alike, the source gives them in different places.

Assays:
[1] = Primary screen cytotoxicity: neutral red dye uptake; assay type: cell-based, human; conditions: human; toxicity control, no antiviral activity; read-out: approximate CC90
Procedure: (§1) Primary in vitro anti-HCV screen. The antiviral activity of test compounds were assayed in the stably HCV RNA-replicating cell line, AVA5, derived by transfection of the human hepatoblastoma cell line, Huh7 (Blight, et al., 2000, Science 290: 1972). The test compounds were added to dividing cultures once daily for three days. The media was changed with each addition of the compounds. Cultures generally start the assay at 30–50% confluence and reach confluence during the last day of treatment.
(§2) Assays were conducted using a single dose of test compound. Duplicate cultures for HCV RNA levels (on 48-well plates) and triplicate cultures for cytotoxicity (on 96-well plates) are used.
(§3) Intracellular HCV RNA levels were measured using a commercial assay (Veresant®, Bayer Diagnostics, Inc. Ross, et al. (2002) J. Virol. Meth. 101:159–168, Quantitation of hepatitic C virus RNA by third generation branched DNA-based signal amplification assay). Cytotoxicity was measured using an established neutral red dye uptake assay (Korba, B. E. and J. L. Gerin. 1992. Use of a standardized cell culture assay to determine activities of nucleoside analogs against hepatitis B virus relication. Antivir. Res. 19:55–70). HCV RNA levels in the treated cultures are expressed as a percentage of the mean levels of RNA detected in untreated cultures. A level of 30% or less, HCV RNA relative to control cultures may be considered to be a positive antiviral effect. A level of 50% or less, neutral red dye uptake relative to control cultures may be considered to be a cytotoxic effect.

[2] = test system: AVA5 cell line (derived from human hepatoblastoma cell line Huh7); assay: as above; assay type: cell-based; conditions: for Neutral Red % Control / Neutral Red O.D.: AVA5
Procedure: as §1, §2, §3

[3] = test system: HCV replicons in AVA5 cell cultures; assay: Secondary in vitro anti-HCV dose-response assay: intracellular HCV RNA; parameters: Intracellular HCV RNA Levels: dose or concentration left out as unconfirmed; conditions: for Intracellular HCV RNA Levels: normalized to β-actin RNA
Procedure: (§4) Dividing cultures of AVA5 cells are treated once daily for three days (media is changed with each addition of compound) with 4 concentrations of test compound (2 cultures per concentration). […] Intracellular HCV RNA levels and cytotoxicity are assessed 24 hours following the last treatment as described for the primary assays. The 50% and 90% effective antiviral concentrations (EC50, EC90) and the 50% cytotoxic concentrations (CC50) are calculated and used to generate Selectivity Indexes (S.I., CC50/EC50). An S.I of 10, or greater, may be considered to be a selective antiviral effect.
(§5) The values presented in Table 6 were calculated by linear regression analysis using data from all treated cultures. The standard deviation was calculated using the error of regression generated from the linear regression analysis.
Analysis of intracellular HCV RNA was performed 24 hours following the final treatment. A total of […] were treated a each concentration for each compound. HCV RNA levels were normalized to the level of β-actin RNA in each individual sample.

[4] = test system: HCV RNA in stably HCV RNA-replicating cell line AVA5; assay: Primary in vitro anti-HCV screen: intracellular HCV RNA levels in AVA5 cells (branched DNA assay); assay type: cell-based, Hepatitis C virus; conditions: for HCV % Control / HCV Copies/ml: AVA5, duplicate cultures; for effect on HCV RNA (treatment controls, in words): at the control concentrations used
Procedure: as §1, with “compounds. […] Intracellular HCV RNA levels” for “compounds. Cultures generally start the assay at 30–50% confluence”, “and cytotoxicity are assessed 24 hours after” for “and reach confluence during”, “last dose” for “last day”, “of compound.” for “of treatment.”
as §2, §3

[5] = Secondary dose-response assay: cytotoxicity (CC50); conditions: human
Procedure: as §4, §5

AVA5 cells = assay: Secondary dose-response assay: cytotoxicity (CC50)
Procedure: as §4, §5

[6] = test system: HCV RNA-replicating cell line AVA5; assay: Normalized Viral Assay; assay type: cell-based, Hepatitis C virus
Procedure: as §1

AVA5 cell line [7] = assay: ATP Cell Viability
AVA5 cell line [8] = assay: MTS Cell Viability
[9] = AVA5, HCV RNA, linear regression
[10] = AVA5, three days treatment, linear regression
[11] = AVA5, values for α-interferon in IU/ml

Molecule | Intracellular HCV RNA Levels [3]; 10 | Intracellular HCV RNA Levels [3]; 30 | Intracellular HCV RNA Levels [3]; 100 | S.I. (CC50/EC90) ([3]; selectivity index, AVA5) | Intracellular HCV RNA Levels [3]; 300 | EC50 [3, 9] | EC90 [3, 9] | Normalized Viral Assay ([6]; 1 μM) | Normalized Viral Assay ([6]; 5 μM) | Normalized Viral Assay ([6]; 10 μM) | ATP Cell Viability (AVA5 cell line [7]; 1 μM) | ATP Cell Viability (AVA5 cell line [7]; 5 μM) | ATP Cell Viability (AVA5 cell line [7]; 10 μM) | MTS Cell Viability (AVA5 cell line [8]; 1 μM) | MTS Cell Viability (AVA5 cell line [8]; 5 μM) | MTS Cell Viability (AVA5 cell line [8]; 10 μM) | further results
NC(=O)c1ncn([C@@H]2O[C@H](CO)[C@@H](O)[C@H]2O)n1 [Ribavirin, ribavirin, reference compound] | 1379495 ± 69125 genomic copies/cell | 640505 ± 29715 genomic copies/cell | 250445 ± 5015 genomic copies/cell | 1.9 | – | – | – | – | – | – | – | – | – | – | – | – | CC90 at 3 days [1]: ~100 µM; Neutral Red % Control ([2]; 100 μM): 18 % Control and 17 % Control; Neutral Red O.D. ([2]; 100 μM): 0.394 O.D. and 0.378 O.D.; effect on cell viability (treatment control, in words) ([2]; compared with the loss of HCV RNA): reduction in cell viability was nearly equivalent; EC50 ([3]; Hepatitis C virus, Ava5): 29 ± 2.5 µM; EC90 ([3]; Hepatitis C virus, Ava5): 140 ± 11 µM; HCV % Control ([4]; 100 μM): 13 % Control and 9 % Control; HCV Copies/ml ([4]; 100 μM): 180813 Copies/ml and 115331 Copies/ml; effect on HCV RNA (treatment controls, in words) [4]: induced loss of HCV RNA; CC50 at 3 days [5]: 54 ± 2.4 µM
Cc1cc(C)cc(Sc2c(Sc3cccc(Cl)c3)c3ccccc3oc2=O)c1 [compound 468] | 1317765 ± 55645 genomic copies/cell | 473805 ± 21625 genomic copies/cell | 194410 ± 7620 genomic copies/cell | – | 56535 ± 8005 genomic copies/cell | 1.2 ± 0.1 µM | 8.3 ± 0.6 µM | 72.14 | 35.09 | 18.06 | – | – | – | – | – | – | S.I. (CC50/EC90) [3]: >250; CC50 (AVA5 cells): > 300 µM
O=c1cc(Sc2cc(Cl)ccc2Cl)c2cc(F)ccc2o1 [compound 901] | – | – | – | – | – | – | – | 24.87 | 12.80 | 8.34 | 105.62 | 106.63 | 79.01 | 107.32 | 97.37 | 86.10 | Neutral Red % Control ([2]; 10 μM, dye uptake relative to untreated cultures, listed as VQ_901): 102 % Control and 100 % Control; Neutral Red O.D. ([2]; 10 μM, listed as VQ_901): 2.287 O.D. and 2.241 O.D.; HCV % Control ([4]; 10 μM, HCV RNA as percentage of untreated cultures): 63 % Control; HCV Copies/ml ([4]; 10 μM, once daily for three days, listed as VQ_901): 851852 Copies/ml and 846803 Copies/ml
O=c1cc(Sc2c(Cl)cccc2Cl)c2cc(F)ccc2o1 [compound 902] | 919880 ± 44000 genomic copies/cell | 332975 ± 6745 genomic copies/cell | 91645 ± 7385 genomic copies/cell | >611 | 12940 ± 5640 genomic copies/cell | 0.491 ± 0.024 µM | 5.2 ± 0.6 µM | 41.92 | 12.03 | 5.61 | 97.96 | 101.74 | 62.95 | 116.05 | 86.70 | 84.52 | Neutral Red % Control ([2]; 10 μM, dye uptake relative to untreated cultures, listed as VQ_902): 95 % Control and 100 % Control; Neutral Red O.D. ([2]; 10 μM, listed as VQ_902): 2.122 O.D. and 2.228 O.D.; HCV % Control ([4]; 10 μM, HCV RNA as percentage of untreated cultures, listed as VQ_902): 9 % Control and 7 % Control; HCV Copies/ml ([4]; 10 μM, once daily for three days, listed as VQ_902): 124712 Copies/ml and 92446 Copies/ml; CC50 (AVA5 cells; [10]): > 300 µM
O=c1cc(Sc2ccccc2F)c2cc(F)ccc2o1 [compound 904] | – | – | – | – | – | – | – | 50.52 | 37.87 | 9.27 | 107.54 | 100.32 | 74.11 | 116.41 | 108.04 | 86.22 | Neutral Red % Control ([2]; 10 μM, dye uptake relative to untreated cultures, listed as VQ_904): 100 % Control and 101 % Control; Neutral Red O.D. ([2]; 10 μM, listed as VQ_904): 2.237 O.D. and 2.255 O.D.; HCV % Control ([4]; 10 μM, HCV RNA as percentage of untreated cultures, listed as VQ_904): 79 % Control and 75 % Control; HCV Copies/ml ([4]; 10 μM, once daily for three days, listed as VQ_904): 1072174 Copies/ml and 1013181 Copies/ml
O=c1cc(Sc2ccc(F)cc2F)c2cc(F)ccc2o1 [compound 910] | 1176970 ± 27620 genomic copies/cell | 494605 ± 6235 genomic copies/cell | 163575 ± 6325 genomic copies/cell | >214 | 58165 ± 7635 genomic copies/cell | 1.4 ± 0.1 µM | 12 ± 1.1 µM | 32.93 | 9.51 | 3.41 | 115.34 | 97.48 | 84.78 | 105.74 | 92.64 | 79.43 | Neutral Red % Control ([2]; 10 μM, dye uptake relative to untreated cultures, listed as VQ_910): 99 % Control and 103 % Control; Neutral Red O.D. ([2]; 10 μM, listed as VQ_910): 2.214 O.D. and 2.293 O.D.; HCV % Control ([4]; 10 μM, HCV RNA as percentage of untreated cultures, listed as VQ_910): 20 % Control and 18 % Control; HCV Copies/ml ([4]; 10 μM, once daily for three days, listed as VQ_910): 266217 Copies/ml and 246717 Copies/ml; CC50 (AVA5 cells; [10]): > 300 µM
α-interferon | – | – | – | >5556 | – | – | – | – | – | – | – | – | – | – | – | – | Neutral Red % Control ([2]; 10 IU/ml, listed as rHu α-IFN): 99 % Control and 103 % Control; Neutral Red O.D. ([2]; 10 IU/ml, listed as rHu α-IFN): 2.217 O.D. and 2.291 O.D.; Intracellular HCV RNA Levels ([3]; 1.0 IU/ml): 1169765 ± 37135 genomic copies/cell; Intracellular HCV RNA Levels ([3]; 3.0 IU/ml): 329605 ± 26035 genomic copies/cell; Intracellular HCV RNA Levels ([3]; 10 IU/ml): 103060 ± 14470 genomic copies/cell; EC50 [3, 11]: 1.8 ± 0.2^1 IU/ml; EC90 [3, 11]: 8.2 ± 0.6^1 IU/ml; HCV % Control ([4]; 10 IU/ml, listed as rHu α-IFN): 5 % Control and 6 % Control; HCV Copies/ml ([4]; 10 IU/ml, listed as rHu α-IFN): 71460 Copies/ml and 85467 Copies/ml; effect on HCV RNA (treatment controls, in words) [4]: induced significant depressions of HCV RNA replication; approximate EC90 ([4]; positive antiviral control, no cytotoxicity): ~10 IU/ml; CC50 (AVA5 cells; [11]): >10000^1,2 IU/ml
